The results in this text go back to PubChem BioAssay (NCI).

Where “and” joins values, the source holds several entries; their conditions need not be identical. Identical values can stand only once.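 Compound exposure: 48 hours, 5 concentrations, 96-well plates. GI50 = concentration required for 50% inhibition of growth. Definition used: TGI = concentration required for complete inhibition of growth.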 Where only a bound is given, the exact number is not on record here.

Among the test systems are OVCAR-4 ovarian; DU-145 prostate; PC-3 prostate; MOLT-4 leukemia; HS 578T breast; SW-620 colon; A498 renal; A549 NSCLC; SR leukemia; UACC-62 melanoma.
Common to all, as to experiment: inhibition of tumour cell growth, NCI panel, 48 h

As for `Clc1nc(Cl)c2ncn(CC3(Cn4cnc5c(Cl)nc(Cl)nc54)COC3)c2n1`, the GI50 in the experiment on OVCAR-4 ovarian was 0.276 µM; in the experiment on DU-145 prostate, 0.183 µM; with PC-3 prostate, 0.188 µM; in the experiment with MOLT-4 leukemia, 0.462 µM; in the experiment with HS 578T breast it was 0.316 µM; in the experiment on SW-620 colon, 0.257 µM. In addition, the GI50 in the experiment on A498 renal is 1.78 µM; in the experiment on A549 NSCLC, 0.273 µM; with SR leukemia, 0.407 µM; with UACC-62 melanoma, 0.283 µM. The TGI with OVCAR-4 ovarian worked out at 0.763 µM; in the experiment on DU-145 prostate it was 0.335 µM; in the experiment on PC-3 prostate, 0.348 µM; in the experiment with HS 578T breast, 0.868 µM; in the experiment with SW-620 colon it was 0.651 µM; in the experiment with A498 renal it was 3.46 µM. In addition, the TGI is 1.19 µM in the experiment with A549 NSCLC, > 100 µM with SR leukemia and 0.903 µM in the experiment with UACC-62 melanoma.
As for `O=c1[nH]nnc2c1ncn2C1OC(CO)C(O)C1O` (stereo not drawn), the GI50 is 5.02 µM in the experiment on OVCAR-4 ovarian; 1.38 µM with DU-145 prostate; 2.93 µM in the experiment on PC-3 prostate; 2.07 µM with MOLT-4 leukemia; > 100 µM in the experiment on HS 578T breast; 10.6 µM in the experiment with SW-620 colon. The GI50 in the experiment with A498 renal was 61.3 µM; in the experiment with A549 NSCLC, 75.7 µM; in the experiment on SR leukemia, 3.21 µM; in the experiment on UACC-62 melanoma it was 4.95 µM. The TGI in the experiment with OVCAR-4 ovarian is > 100 µM; with DU-145 prostate it was > 100 µM; in the experiment with PC-3 prostate, > 100 µM; with MOLT-4 leukemia it was 36 µM; in the experiment with HS 578T breast it was > 100 µM; in the experiment with SW-620 colon, > 100 µM. The TGI with A498 renal was > 100 µM; in the experiment on A549 NSCLC it was > 100 µM; in the experiment on SR leukemia it was 59.7 µM; with UACC-62 melanoma, > 100 µM.
For the compound `Cc1c[n+](=O)c2ccccc2n1[O-]`, the TGI with OVCAR-4 ovarian, in the experiment on DU-145 prostate, in the experiment on PC-3 prostate, in the experiment on MOLT-4 leukemia, in the experiment on HS 578T breast and in the experiment on SW-620 colon was > 100 µM in each case. In addition, the TGI in the experiment with A498 renal, in the experiment with A549 NSCLC, with SR leukemia and in the experiment on UACC-62 melanoma was > 100 µM each time.
Consider `C=C(C)C(O)CCC1(C)C=Cc2c(c(C)cc3c2[nH]c2ccccc23)O1` (stereo not drawn), for which the TGI was 30.8 µM with OVCAR-4 ovarian; 25.1 µM in the experiment with DU-145 prostate; 19.3 µM with PC-3 prostate; 18.7 µM and 13.8 µM in the experiment on MOLT-4 leukemia; 13.5 µM with HS 578T breast; 10.2 µM and 18.7 µM in the experiment with SW-620 colon. The TGI in the experiment with A498 renal was 26.6 µM; with A549 NSCLC it was 25 µM and 16.1 µM; in the experiment with SR leukemia it was 25 µM and 16.5 µM; with UACC-62 melanoma, 11 µM. Also, the GI50 with MOLT-4 leukemia is 3.47 µM; with SW-620 colon, 5.08 µM; with A549 NSCLC it was 5.02 µM; with SR leukemia it was 4.43 µM.
`ClCc1cccc2c(CCl)cccc12`: the GI50 was 12 µM in the experiment on OVCAR-4 ovarian; 1.76 µM in the experiment with DU-145 prostate; 4.21 µM with PC-3 prostate; 3.98 µM in the experiment on MOLT-4 leukemia; 1.86 µM in the experiment with HS 578T breast; 3.4 µM in the experiment with SW-620 colon. Further, the GI50 in the experiment on A498 renal was 11 µM; in the experiment on A549 NSCLC it was 8.77 µM; with SR leukemia, 0.901 µM; in the experiment on UACC-62 melanoma, 3.25 µM. For the same compound, the TGI in the experiment with OVCAR-4 ovarian was 75.7 µM; in the experiment on DU-145 prostate, 4.08 µM; in the experiment with PC-3 prostate, 19.7 µM; in the experiment on MOLT-4 leukemia it was > 100 µM; with HS 578T breast it was 6.7 µM; in the experiment on SW-620 colon, 19.1 µM. The TGI in the experiment on A498 renal was 23.7 µM; in the experiment with A549 NSCLC it was 24 µM; in the experiment on SR leukemia, > 100 µM; with UACC-62 melanoma it was 23.3 µM.
For `O=C(Oc1cccc(F)c1OC(=O)c1cccc(O)c1)c1cccc(O)c1`, the GI50 in the experiment on OVCAR-4 ovarian was 15.2 µM; with DU-145 prostate, 44.7 µM; with PC-3 prostate, 52.9 µM; in the experiment with MOLT-4 leukemia, 15.9 µM; in the experiment with HS 578T breast, > 100 µM; in the experiment with SW-620 colon, 37.4 µM. Further, the GI50 is > 100 µM in the experiment with A498 renal, 24.6 µM in the experiment on A549 NSCLC, 7.91 µM in the experiment with SR leukemia and 40.8 µM in the experiment with UACC-62 melanoma. In addition, the TGI in the experiment with OVCAR-4 ovarian, with DU-145 prostate, with PC-3 prostate, with MOLT-4 leukemia, in the experiment with HS 578T breast and in the experiment with SW-620 colon was > 100 µM each time. Besides, the TGI in the experiment on A498 renal, in the experiment with A549 NSCLC, in the experiment on SR leukemia and in the experiment with UACC-62 melanoma was > 100 µM each time.
As for `O=C(O)CN(CC(=O)O)Cc1cc(C#Cc2ccc(C#Cc3ccccc3)cc2)cc(CN(CC(=O)O)CC(=O)O)n1`, the TGI is 56 µM in the experiment with OVCAR-4 ovarian; > 100 µM in the experiment with DU-145 prostate; 60.9 µM with PC-3 prostate; 53.7 µM in the experiment with MOLT-4 leukemia; > 100 µM in the experiment on HS 578T breast; > 68 µM with SW-620 colon. The TGI was > 100 µM in the experiment on A498 renal, > 100 µM with A549 NSCLC, > 62.5 µM with SR leukemia and 40.4 µM in the experiment on UACC-62 melanoma.
For `CCOC(=O)Nc1ccc2c(c1)/C(=N\NC(N)=S)c1ccccc1-2`, the GI50 with OVCAR-4 ovarian is 4.39 µM; in the experiment with DU-145 prostate it was 5.15 µM; in the experiment on PC-3 prostate it was 4.44 µM; in the experiment on MOLT-4 leukemia, 2.83 µM; in the experiment on HS 578T breast it was 5.43 µM; in the experiment on SW-620 colon it was 5.91 µM. The GI50 in the experiment on A498 renal is 2.39 µM; with A549 NSCLC, 3.79 µM; with SR leukemia, 3.13 µM; in the experiment on UACC-62 melanoma it was 2.03 µM. The TGI in the experiment with OVCAR-4 ovarian is 39.1 µM; in the experiment on DU-145 prostate it was 20 µM; in the experiment with PC-3 prostate, 24.8 µM; with MOLT-4 leukemia it was 13.2 µM; in the experiment with HS 578T breast, 36.7 µM; in the experiment on SW-620 colon, 32.6 µM. The TGI turned out to be 8.18 µM with A498 renal, 19.7 µM in the experiment with A549 NSCLC, 24.3 µM with SR leukemia and 4.77 µM in the experiment with UACC-62 melanoma.
